In brackets after ≈: the same amount, converted by molar mass.
Tested on: Spodoptera littoralis
Assay: Insecticidal bioassay screening (castor leaf dip) against 2nd and 4th instar larvae
Type: in vivo
Details: for Toxic ratio: 72 h, fenoxycarb's LC50/compound's LC50 ×100
Method: Five concentrations (200, 100, 50, 25, 12.5 ppm) were designed for this synthetic compound and the reference fenoxycarb compound as the dynamic ingredients based on ppm via diluting the commercial formulation.
In this experiment, castor leaves were immersed in each of the previously prepared concentrations of the components for 10 seconds and then left to dry for 60 minutes.
Larvae of the second and fourth instars of each checked strain were prepared with treated leaves in gauze-covered glass containers for 72 hrs. An untreated control was made in which leaves were dipped in triton x-100 and distilled water only. Then, the preserved leaves were removed & fresh, untreated leaves were provided for 72 hours. Three replicates (10 larvae each) were checked for each concentration. Daily inspection was carried out for all treatments and mortality percentages were recorded 3 days (72 hours) after treatment. The average mortality percentage was corrected employing Abbott's formula. The corrected mortality rate for each of the previously synthesized compounds was statistically calculated according to Finney (1970). Through this rate, the corresponding concentration test lines (LDP lines) were assessed. Fifty and ninety percent mortality was determined, and the regression values for the checked products were previously evaluated.

CCOC(=O)NCCOc1ccc(Oc2ccccc2)cc1 [Fenoxycarb]
LC50 (2nd instar larvae of S. littoralis, after 72 h of treatment): 2.73 ppm
Toxic ratio (2nd instar larvae): 100
LC50 (4th instar larvae of S. littoralis, after 72 h of treatment): 43.231 ppm
Toxic ratio (4th instar larvae): 1
LC50 (Spodoptera littoralis, foliar): 2.73 µg/mL (≈ 9.06 µM)

— patent US12116333B1, “3,3'-(hydrazine-1,2-diyl)bis(1-(naphthalen-2-yloxy)propan-2-ol) as an ecofriendly insecticidal agent against spodoptera littoralis (boisd.)” (KING FAISAL UNIVERSITY, priority 2023, dated 2024)
